Measurements from patent publication US20260325533A1, “CDK INHIBITOR COMPOUNDS” (ALEKSIA THERAPEUTICS, INC., priority 2023, published 2026).
Read-outs that look alike come from different tables or passages of the source.

How the values were obtained:
Format in all cases: biochemical
CDK2/CCNE1 = CDK2/CCNE1 (Homo sapiens, UniProt P24941); assay: CDK2 homogeneous time-resolved fluorescence (HTRF) kinase assay; details: CDK2/CCNE
In short: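 TR-FRET read-out (665 nm, or 665/615 ratio) of Eu-antibody detection of phospho-4E-BP1 (Thr37/46) ULight peptide. Enzyme 3 nM, ATP 1 mM, peptide 50 nM, 1% DMSO; 60 min reaction at 23 °C after 20 min compound preincubation. IC50 from 11-point half-log titrations, top typically 10 μM.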

CDK1/CCNB1 = CDK1/CCNB1 (Homo sapiens, UniProt P06493); assay: CDK1 homogeneous time-resolved fluorescence (HTRF) kinase assay; details: CDK1/CCNB; x = IC50 >250 nM; read-out: CDK1/CCNB IC50 (>250 nM column)
In short: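 CDK1/CCNB1 0.5 nM + cpd, 20 min 23 °C; add 1 mM ATP, 50 nM ULight-4E-BP1 peptide, 60 min 23 °C; stop 10 mM EDTA; 2 nM Eu-Ab, 60 min; HTRF 665 nm. 11-pt half-log, top 10 μM typical; IC50.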

CDK4/CCND3 = CDK4/CCND3 (Homo sapiens, UniProt P11802); assay: CDK4 homogeneous time-resolved fluorescence (HTRF) kinase assay; details: CDK4/CCND; x = IC50 >250 nM; read-out: CDK4/CCND IC50 (>250 nM column)
In short: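 IC50 values were derived from 11-point half-log dilutions, usually starting at 10 μM. Compound was first held for 20 min at 23 °C with 1.5 nM CDK4/CCND3. 1 mM ATP and 50 nM ULight-eIF4E-BP1 (Thr37/46) substrate were then added for 60 min, and the TR-FRET 665 nm signal was measured after EDTA stop and Eu-anti-phospho-4E-BP1 detection.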

CDK6/CCND1 = CDK6/CCND1 (Homo sapiens, UniProt Q00534); assay: CDK6 homogeneous time-resolved fluorescence (HTRF) kinase assay; details: CDK6/CCND
In short: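 Recombinant CDK6/CCND1 (1 nM final) was preincubated with compound for 20 min at 23 °C in HEPES buffer with MgCl2, EGTA, DTT and Tween 20. Kinase reaction then ran 60 min at 23 °C with 1 mM ATP and 50 nM ULight-4E-BP1 (Thr37/46) peptide, and was stopped with EDTA.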

[1] = x = IC50 25-250 nM, read-out: CDK2/CCNE IC50 (25-250 nM)
[2] = x = IC50 >250 nM, read-out: CDK6/CCND IC50 (>250 nM column)
[3] = x = IC50 <25 nM, read-out: CDK2/CCNE IC50 (<25 nM)
[4] = x = IC50 >250 nM, read-out: CDK2/CCNE IC50 (>250 nM column)
[5] = x = IC50 <25 nM, read-out: CDK6/CCND IC50 (<25 nM)

Sequence of CDK6/CCND1 (Q00534 whole entry): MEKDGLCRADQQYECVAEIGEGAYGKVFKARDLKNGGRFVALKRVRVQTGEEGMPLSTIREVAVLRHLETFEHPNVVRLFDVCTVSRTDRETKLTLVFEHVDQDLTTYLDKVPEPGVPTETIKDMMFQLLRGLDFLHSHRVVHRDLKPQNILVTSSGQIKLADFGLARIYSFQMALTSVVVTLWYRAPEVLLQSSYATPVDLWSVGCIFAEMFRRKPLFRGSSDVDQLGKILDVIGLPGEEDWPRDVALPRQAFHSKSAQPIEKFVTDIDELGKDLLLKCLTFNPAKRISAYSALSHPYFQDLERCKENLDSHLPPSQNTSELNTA
Sequence of CDK6/CCND1 (P24385 whole entry partner): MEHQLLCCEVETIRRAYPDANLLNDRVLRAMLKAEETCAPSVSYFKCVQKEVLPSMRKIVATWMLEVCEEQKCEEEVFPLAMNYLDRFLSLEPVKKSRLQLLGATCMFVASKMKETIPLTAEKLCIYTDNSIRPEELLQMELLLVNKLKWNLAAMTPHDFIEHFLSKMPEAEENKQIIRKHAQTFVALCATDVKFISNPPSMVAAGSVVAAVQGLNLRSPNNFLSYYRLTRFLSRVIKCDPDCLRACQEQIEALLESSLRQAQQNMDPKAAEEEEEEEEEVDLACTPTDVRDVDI
Sequence of CDK1/CCNB1 (P06493 whole entry): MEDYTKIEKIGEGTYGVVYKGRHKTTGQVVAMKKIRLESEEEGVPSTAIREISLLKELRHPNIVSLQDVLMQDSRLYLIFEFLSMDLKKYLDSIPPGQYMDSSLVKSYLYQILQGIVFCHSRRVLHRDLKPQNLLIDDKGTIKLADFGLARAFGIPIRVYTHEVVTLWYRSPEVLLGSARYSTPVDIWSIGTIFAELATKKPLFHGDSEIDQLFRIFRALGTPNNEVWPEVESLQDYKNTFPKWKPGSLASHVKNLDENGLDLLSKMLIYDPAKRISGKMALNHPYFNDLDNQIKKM
Sequence of CDK1/CCNB1 (P14635 whole entry partner): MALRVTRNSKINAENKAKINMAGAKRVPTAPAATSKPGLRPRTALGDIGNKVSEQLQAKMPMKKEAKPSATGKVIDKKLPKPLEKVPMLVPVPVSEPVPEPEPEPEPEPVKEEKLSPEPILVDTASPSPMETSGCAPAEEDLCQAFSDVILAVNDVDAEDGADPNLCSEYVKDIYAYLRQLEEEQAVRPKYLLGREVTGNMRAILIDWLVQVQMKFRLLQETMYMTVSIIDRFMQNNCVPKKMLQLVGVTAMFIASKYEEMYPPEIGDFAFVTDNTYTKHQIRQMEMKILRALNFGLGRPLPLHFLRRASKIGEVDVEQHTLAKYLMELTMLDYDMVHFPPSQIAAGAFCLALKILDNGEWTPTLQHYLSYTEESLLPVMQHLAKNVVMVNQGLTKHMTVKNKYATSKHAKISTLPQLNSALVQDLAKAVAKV
Sequence of CDK4/CCND3 (P11802 whole entry): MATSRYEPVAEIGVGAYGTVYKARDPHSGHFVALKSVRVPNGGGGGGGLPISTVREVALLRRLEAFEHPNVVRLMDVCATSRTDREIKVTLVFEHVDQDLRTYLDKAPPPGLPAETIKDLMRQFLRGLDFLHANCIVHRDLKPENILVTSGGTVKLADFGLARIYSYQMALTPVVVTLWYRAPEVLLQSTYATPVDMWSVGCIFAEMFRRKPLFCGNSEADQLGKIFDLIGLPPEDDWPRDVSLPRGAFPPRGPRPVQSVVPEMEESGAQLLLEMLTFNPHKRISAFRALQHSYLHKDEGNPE
Sequence of CDK4/CCND3 (P30281 whole entry partner): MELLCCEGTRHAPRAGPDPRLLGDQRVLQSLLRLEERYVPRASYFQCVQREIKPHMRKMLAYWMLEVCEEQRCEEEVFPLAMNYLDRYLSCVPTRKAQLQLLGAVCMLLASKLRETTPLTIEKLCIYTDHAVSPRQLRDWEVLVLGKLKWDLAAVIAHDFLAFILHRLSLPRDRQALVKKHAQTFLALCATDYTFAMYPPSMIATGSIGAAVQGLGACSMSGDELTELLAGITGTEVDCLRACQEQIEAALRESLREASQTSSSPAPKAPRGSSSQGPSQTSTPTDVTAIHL

Row | Compound | IC50 (CDK2/CCNE1; [1]) [nM] | IC50 (CDK1/CCNB1) [nM] | IC50 (CDK4/CCND3) [nM] | IC50 (CDK6/CCND1; [2]) [nM] | IC50 (CDK2/CCNE1; [3]) [nM] | IC50 (CDK2/CCNE1; [4]) [nM] | IC50 (CDK6/CCND1; [5]) [nM]
1 | CS(=O)(=O)c1ccc(Nc2cc3c(C#Cc4ccc5c(C#N)c[nH]c5c4)nccc3cn2)cc1 [Ex 532, 6-((7-((4-(methylsulfonyl)phenyl)amino)-2,6-naphthyridin-1-yl)ethynyl)-1H-indole-3-carbonitrile] | 25 to 250 | > 250 | > 250 | > 250 | – | – | –
2 | Cc1nc(C#Cc2nccc3cnc(Nc4ccc(S(C)(=O)=O)cc4)cc23)sc1C [Ex 540, 5-((4,5-dimethylthiazol-2-yl)ethynyl)-N-(4-(methylsulfonyl)phenyl)-2,6-naphthyridin-3-amine] | – | > 250 | > 250 | > 250 | – | > 250 | –
3 | Cc1nc(N)nc(C)c1C#Cc1nccc2cnc(Nc3ccc(S(C)(=O)=O)cc3)cc12 [Ex 541, 5-((2-amino-4,6-dimethylpyrimidin-5-yl)ethynyl)-N-(4-(methylsulfonyl)phenyl)-2,6-naphthyridin-3-amine] | 25 to 250 | > 250 | > 250 | > 250 | – | – | –
4 | CC(C)(O)c1nc2ccc(C#Cc3nccc4cnc(Nc5ccc(S(C)(=O)=O)cc5)cc34)cc2[nH]1 [Ex 542, 2-(6-((7-((4-(methylsulfonyl)phenyl)amino)-2,6-naphthyridin-1-yl)ethynyl)-1H-benzo[d]imidazol-2-yl)propan-2-ol] | – | > 250 | > 250 | > 250 | < 25 | – | –
5 | CC(C)(O)Cn1cnc2ccc(C#Cc3nccc4cnc(Nc5ccc(S(C)(=O)=O)cc5)cc34)cc21 [Ex 543, 2-methyl-1-(6-((7-((4-(methylsulfonyl)phenyl)amino)-2,6-naphthyridin-1-yl)ethynyl)-1H-benzo[d]imidazol-1-yl)propan-2-ol] | – | > 250 | > 250 | > 250 | – | > 250 | –
6 | CS(=O)(=O)c1ccc(Nc2cc3c(C#Cc4n[nH]c5cccc(F)c45)nccc3cn2)cc1 [Ex 551, 5-((4-fluoro-1H-indazol-3-yl)ethynyl)-N-(4-(methylsulfonyl)phenyl)-2,6-naphthyridin-3-amine] | 25 to 250 | > 250 | > 250 | – | – | – | < 25
7 | CS(=O)(=O)c1ccc(Nc2cc3c(C#Cc4ncc(N)nc4Cl)nccc3cn2)cc1 [Ex 552, 5-((5-amino-3-chloropyrazin-2-yl)ethynyl)-N-(4-(methylsulfonyl)phenyl)-2,6-naphthyridin-3-amine] | 25 to 250 | > 250 | > 250 | – | – | – | < 25
8 | Cc1ccc(C#Cc2nccc3cnc(Nc4ccc(S(C)(=O)=O)cc4)cc23)c(C#N)n1 [Ex 553, 6-methyl-3-((7-((4-(methylsulfonyl)phenyl)amino)-2,6-naphthyridin-1-yl)ethynyl)picolinonitrile] | 25 to 250 | > 250 | > 250 | – | – | – | < 25
9 | CS(=O)(=O)c1ccc(Nc2cc3c(C#Cc4ccc(C#N)cc4F)nccc3cn2)cc1 [Ex 554, 3-fluoro-4-((7-((4-(methylsulfonyl)phenyl)amino)-2,6-naphthyridin-1-yl)ethynyl)benzonitrile] | 25 to 250 | > 250 | > 250 | > 250 | – | – | –

Now from value to compound:

Row | IC50 (CDK2/CCNE1; [1]) [nM] | IC50 (CDK1/CCNB1) [nM] | IC50 (CDK4/CCND3) [nM] | IC50 (CDK6/CCND1; [2]) [nM] | IC50 (CDK2/CCNE1; [3]) [nM] | IC50 (CDK2/CCNE1; [4]) [nM] | IC50 (CDK6/CCND1; [5]) [nM] | Compound
10 | 25 to 250 | > 250 | > 250 | > 250 | – | – | – | CS(=O)(=O)c1ccc(Nc2cc3c(C#Cc4cc(CO)cnc4N)nccc3cn2)cc1 [Ex 533, (6-amino-5-((7-((4-(methylsulfonyl)phenyl)amino)-2,6-naphthyridin-1-yl)ethynyl)pyridin-3-yl)methanol]
11 | 25 to 250 | > 250 | > 250 | > 250 | – | – | – | CS(=O)(=O)c1ccc(Nc2cc3c(C#Cc4cnc(N)c(OC(F)F)c4)nccc3cn2)cc1 [Ex 534, 5-((6-amino-5-(difluoromethoxy)pyridin-3-yl)ethynyl)-N-(4-(methylsulfonyl)phenyl)-2,6-naphthyridin-3-amine]
12 | 25 to 250 | > 250 | > 250 | > 250 | – | – | – | CS(=O)(=O)c1ccc(Nc2cc3c(C#Cc4cccc5ncnn45)nccc3cn2)cc1 [Ex 535, 5-([1,2,4]triazolo[1,5-a]pyridin-5-ylethynyl)-N-(4-(methylsulfonyl)phenyl)-2,6-naphthyridin-3-amine]
13 | 25 to 250 | > 250 | > 250 | > 250 | – | – | – | CS(=O)(=O)c1ccc(Nc2cc3c(C#Cc4cnc(C#N)c(N)c4)nccc3cn2)cc1 [Ex 536, 3-amino-5-((7-((4-(methylsulfonyl)phenyl)amino)-2,6-naphthyridin-1-yl)ethynyl)picolinonitrile]
14 | – | > 250 | > 250 | > 250 | < 25 | – | – | CS(=O)(=O)c1ccc(Nc2cc3c(C#Cc4cnncc4N)nccc3cn2)cc1 [Ex 537, 5-((5-aminopyridazin-4-yl)ethynyl)-N-(4-(methylsulfonyl)phenyl)-2,6-naphthyridin-3-amine]
15 | 25 to 250 | > 250 | > 250 | > 250 | – | – | – | CN(C)c1ncc(C#Cc2nccc3cnc(Nc4ccc(S(C)(=O)=O)cc4)cc23)cn1 [Ex 538, 5-((2-(dimethylamino)pyrimidin-5-yl)ethynyl)-N-(4-(methylsulfonyl)phenyl)-2,6-naphthyridin-3-amine]
16 | 25 to 250 | > 250 | > 250 | > 250 | – | – | – | CS(=O)(=O)c1ccc(Nc2cc3c(C#Cc4ccc(OC(F)F)nc4)nccc3cn2)cc1 [Ex 539, 5-((6-(difluoromethoxy)pyridin-3-yl)ethynyl)-N-(4-(methylsulfonyl)phenyl)-2,6-naphthyridin-3-amine]
17 | – | > 250 | > 250 | > 250 | – | > 250 | – | CNc1ccncc1C#Cc1nccc2cnc(Nc3ccc(S(C)(=O)=O)cc3)cc12 [Ex 547, 5-((4-(methylamino)pyridin-3-yl)ethynyl)-N-(4-(methylsulfonyl)phenyl)-2,6-naphthyridin-3-amine]
18 | 25 to 250 | > 250 | > 250 | > 250 | – | – | – | CS(=O)(=O)c1ccc(Nc2cc3c(C#Cc4ccnc5[nH]ncc45)nccc3cn2)cc1 [Ex 548, 5-((1H-pyrazolo[3,4-b]pyridin-4-yl)ethynyl)-N-(4-(methylsulfonyl)phenyl)-2,6-naphthyridin-3-amine]
19 | 25 to 250 | > 250 | > 250 | > 250 | – | – | – | CS(=O)(=O)c1ccc(Nc2cc3c(C#Cc4cc(F)c(N)c(F)c4)nccc3cn2)cc1 [Ex 549, 5-((4-amino-3,5-difluorophenyl)ethynyl)-N-(4-(methylsulfonyl)phenyl)-2,6-naphthyridin-3-amine]
20 | 25 to 250 | > 250 | > 250 | > 250 | – | – | – | CS(=O)(=O)c1ccc(Nc2cc3c(C#Cc4cnn(CC(F)(F)F)c4)nccc3cn2)cc1 [Ex 550, N-(4-(methylsulfonyl)phenyl)-5-((1-(2,2,2-trifluoroethyl)-1H-pyrazol-4-yl)ethynyl)-2,6-naphthyridin-3-amine]
21 | 25 to 250 | > 250 | > 250 | > 250 | – | – | – | Cc1cnc(C#Cc2nccc3cnc(Nc4ccc(S(C)(=O)=O)cc4)cc23)c(C)n1 [Ex 555, 5-((3,5-dimethylpyrazin-2-yl)ethynyl)-N-(4-(methylsulfonyl)phenyl)-2,6-naphthyridin-3-amine]
